Laboratory results reported in PubChem BioAssay AID2060327 (Molecular Pharmacology Branch, DTP, NCI, 2025).

Test system: PC-3 multi-cell spheroids, viability
Assay: Anticancer human tumor PC-3 cell line growth inhibition [IpAb];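 also: spheroids exposed to compounds for 7 days before readout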;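 as to viability, T/C: 100% = DMSO vehicle control wells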
Settings: for IC50: curve of first compound; for viability, T/C: stronger effect = lower value
How it was run: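 Multi-cell spheroids of 60% tumour cells, 25% HUVEC and 15% MSC in ultra-low-attachment U-bottom wells, treated with agents combined with ipatasertib or abemaciclib. Half-log ranges top out near clinical Cmax, or 10 microM when Cmax is unknown.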

[1] = second compound 0.01 µM, first compound 0.0316 µM
[2] = second compound 0.01 µM, first compound 0.1 µM
[3] = second compound 0.01 µM, first compound 0.316 µM
[4] = second compound 0.01 µM, first compound 1 µM
[5] = second compound 0.01 µM, first compound 3.16 µM
[6] = second compound 0.01 µM, first compound 10 µM
[7] = second compound 0.0316 µM, first compound 0.0316 µM
[8] = second compound 0.0316 µM, first compound 0.1 µM
[9] = second compound 0.0316 µM, first compound 0.316 µM
[10] = second compound 0.0316 µM, first compound 1 µM
[11] = second compound 0.0316 µM, first compound 3.16 µM
[12] = second compound 0.0316 µM, first compound 10 µM
[13] = second compound 0.1 µM, first compound 0.0316 µM
[14] = second compound 0.1 µM, first compound 0.1 µM
[15] = second compound 0.1 µM, first compound 0.316 µM
[16] = second compound 0.1 µM, first compound 1 µM
[17] = second compound 0.1 µM, first compound 3.16 µM
[18] = second compound 0.1 µM, first compound 10 µM
[19] = second compound 0.316 µM, first compound 0.0316 µM
[20] = second compound 0.316 µM, first compound 0.1 µM
[21] = second compound 0.316 µM, first compound 0.316 µM
[22] = second compound 0.316 µM, first compound 1 µM
[23] = second compound 0.316 µM, first compound 3.16 µM
[24] = second compound 0.316 µM, first compound 10 µM
[25] = second compound 1 µM, first compound 0.0316 µM
[26] = second compound 1 µM, first compound 0.1 µM
[27] = second compound 1 µM, first compound 0.316 µM
[28] = second compound 1 µM, first compound 1 µM
[29] = second compound 1 µM, first compound 3.16 µM
[30] = second compound 1 µM, first compound 10 µM

CC1(C)CCC(CN2CCN(c3ccc(C(=O)NS(=O)(=O)c4ccc(NCC5CCOCC5)c([N+](=O)[O-])c4)c(Oc4cnc5[nH]ccc5c4)c3)CC2)=C(c2ccc(Cl)cc2)C1 + CCN1CCN(Cc2ccc(Nc3ncc(F)c(-c4cc(F)c5nc(C)n(C(C)C)c5c4)n3)nc2)CC1
IC50 (second compound 0.01 µM): 5.52 µM
IC50 (second compound 0.0316 µM): 4.54 µM
IC50 (second compound 0.1 µM): 4.19 µM
IC50 (second compound 0.316 µM): 3.98 µM
IC50 (second compound 1 µM): 1.28 µM
viability, T/C [1]: 102%
viability, T/C [2]: 101%
viability, T/C [3]: 107%
viability, T/C [4]: 98.1%
viability, T/C [5]: 93.2%
viability, T/C [6]: 4%
viability, T/C [7]: 73.1%
viability, T/C [8]: 71.5%
viability, T/C [9]: 73.6%
viability, T/C [10]: 64.8%
viability, T/C [11]: 71.4%
viability, T/C [12]: 4.41%
viability, T/C [13]: 65.9%
viability, T/C [14]: 66%
viability, T/C [15]: 58.7%
viability, T/C [16]: 64.2%
viability, T/C [17]: 70.1%
viability, T/C [18]: 3.35%
viability, T/C [19]: 62.9%
viability, T/C [20]: 70.4%
viability, T/C [21]: 66.3%
viability, T/C [22]: 61.7%
viability, T/C [23]: 61.9%
viability, T/C [24]: 3.28%
viability, T/C [25]: 60.8%
viability, T/C [26]: 60.2%
viability, T/C [27]: 54.3%
viability, T/C [28]: 51.8%
viability, T/C [29]: 41.5%
viability, T/C [30]: 4.98%

CCCS(=O)(=O)Nc1ccc(F)c(C(=O)c2c[nH]c3ncc(-c4ccc(Cl)cc4)cc23)c1F + CCN1CCN(Cc2ccc(Nc3ncc(F)c(-c4cc(F)c5nc(C)n(C(C)C)c5c4)n3)nc2)CC1
IC50 (second compound 0.01 µM): 9.02 µM
IC50 (second compound 0.0316 µM): 6.6 µM
IC50 (second compound 0.1 µM): 8.63 µM
IC50 (second compound 0.316 µM): 4.29 µM
IC50 (second compound 1 µM): 3.41 µM
viability, T/C [1]: 92.5%
viability, T/C [2]: 96.8%
viability, T/C [3]: 104%
viability, T/C [4]: 99.5%
viability, T/C [5]: 76.3%
viability, T/C [6]: 47.4%
viability, T/C [7]: 65%
viability, T/C [8]: 79.1%
viability, T/C [9]: 71.7%
viability, T/C [10]: 77.8%
viability, T/C [11]: 69.3%
viability, T/C [12]: 38.8%
viability, T/C [13]: 57.3%
viability, T/C [14]: 57.4%
viability, T/C [15]: 68.6%
viability, T/C [16]: 64.1%
viability, T/C [17]: 61.9%
viability, T/C [18]: 34.9%
viability, T/C [19]: 64.7%
viability, T/C [20]: 64%
viability, T/C [21]: 68%
viability, T/C [22]: 62.4%
viability, T/C [23]: 57.2%
viability, T/C [24]: 30.6%
viability, T/C [25]: 61.5%
viability, T/C [26]: 58.5%
viability, T/C [27]: 65.3%
viability, T/C [28]: 54.6%
viability, T/C [29]: 52.6%
viability, T/C [30]: 30.6%

Cn1cnc2c(F)c(Nc3ccc(Br)cc3Cl)c(C(=O)NOCCO)cc21 + CCN1CCN(Cc2ccc(Nc3ncc(F)c(-c4cc(F)c5nc(C)n(C(C)C)c5c4)n3)nc2)CC1
IC50 (second compound 0.01 µM): > 3 µM
IC50 (second compound 0.0316 µM): 1.95 µM
IC50 (second compound 0.1 µM): 1.58 µM
IC50 (second compound 0.316 µM): 0.594 µM
IC50 (second compound 1 µM): 0.0294 µM
viability, T/C (second compound 0.01 µM, first compound 0.00949 µM): 95%
viability, T/C (second compound 0.01 µM, first compound 0.03 µM): 86.2%
viability, T/C (second compound 0.01 µM, first compound 0.0949 µM): 91.7%
viability, T/C (second compound 0.01 µM, first compound 0.3 µM): 87.7%
viability, T/C (second compound 0.01 µM, first compound 0.949 µM): 79.7%
viability, T/C (second compound 0.01 µM, first compound 3 µM): 59.8%
viability, T/C (second compound 0.0316 µM, first compound 0.00949 µM): 74.1%
viability, T/C (second compound 0.0316 µM, first compound 0.03 µM): 72.1%
viability, T/C (second compound 0.0316 µM, first compound 0.0949 µM): 62.2%
viability, T/C (second compound 0.0316 µM, first compound 0.3 µM): 71.8%
viability, T/C (second compound 0.0316 µM, first compound 0.949 µM): 57%
viability, T/C (second compound 0.0316 µM, first compound 3 µM): 45%
viability, T/C (second compound 0.1 µM, first compound 0.00949 µM): 56%
viability, T/C (second compound 0.1 µM, first compound 0.03 µM): 58.3%
viability, T/C (second compound 0.1 µM, first compound 0.0949 µM): 58.2%
viability, T/C (second compound 0.1 µM, first compound 0.3 µM): 49.2%
viability, T/C (second compound 0.1 µM, first compound 0.949 µM): 53.7%
viability, T/C (second compound 0.1 µM, first compound 3 µM): 47.8%
viability, T/C (second compound 0.316 µM, first compound 0.00949 µM): 60.2%
viability, T/C (second compound 0.316 µM, first compound 0.03 µM): 50.5%
viability, T/C (second compound 0.316 µM, first compound 0.0949 µM): 53.6%
viability, T/C (second compound 0.316 µM, first compound 0.3 µM): 54.6%
viability, T/C (second compound 0.316 µM, first compound 0.949 µM): 48.1%
viability, T/C (second compound 0.316 µM, first compound 3 µM): 41.5%
viability, T/C (second compound 1 µM, first compound 0.00949 µM): 53.2%
viability, T/C (second compound 1 µM, first compound 0.03 µM): 47.3%
viability, T/C (second compound 1 µM, first compound 0.0949 µM): 42.6%
viability, T/C (second compound 1 µM, first compound 0.3 µM): 52.1%
viability, T/C (second compound 1 µM, first compound 0.949 µM): 57.2%
viability, T/C (second compound 1 µM, first compound 3 µM): 36.5%
